Assay [1] relates to LPS-stimulated TNFα production in THP-1 cells. Description: LPS-stimulated TNFα production inhibition test using human acute monocytic leukemia cell strain THP-1. It is filed as cell-based. The note with it: Homo sapiens, THP-1, 4 h, LPS 2.5 ng/mL, average values. How it is done: By the THP-1 assay, influence of a test compound on the TNFα production induced by LPS stimulation can be evaluated. The THP-1 cells (ATCC, Cat. TIB-202) were inoculated on a 96-well plate at a density of 1×10^5 cells/160 μL/well, a test compound was added in a volume of 20 μL, and the plate was incubated at 37° C. for 1 hour in a 5% CO2 incubator. Then, LPS in a volume of 20 μL (final concentration 2.5 ng/mL, Sigma, Cat. L2630) was added, and the plate was further incubated for 4 hours. After the incubation, the plate was centrifuged, and 100 μL of the supernatant was taken from each well, and used for evaluation of the amount of TNFα using HTRF (Cisbio, Cat. 62TNFPEB). In the measurement of the amount of TNFα, the supernatant was diluted twice with the medium, and then added to wells of a 384-well plate in a volume of 10 μL, then anti-TNFα-cryptate (5 μL), and anti-TNFα-XL665 (5 μL) were added, and the plate was left standing overnight. The fluorescence intensity ratio for the wavelengths of 620 and 665 nm (620 nm/665 nm) was measured with a microplate reader, and the amount of TNFα in the supernatant was calculated by using a calibration curve. The TNFα production suppression ratio observed with no addition of LPS was defined to be 100%, the TNFα production suppression ratio observed with no addition of the test compound was defined to be 0%, and IC50 of the test compound was calculated by using the 4-parameter logistic model of the data analysis software XLfit (ID Business Solutions Ltd.).

For assay [2], the target named is human IRAK-4 (Homo sapiens (Human), UniProt Q9NWZ3). Description: Measurement of human IRAK-4 inhibitory activity (TR-FRET, peptide substrate phosphorylation, 10 μM ATP). It is filed as biochemical. The settings on record: 1 nM IRAK-4, 10 μM ATP, 23° C., 30 minutes; average values. How it is done:
For the measurement of the activity of the human IRAK-4 (Invitrogen, Cat. PV3362), phosphorylation of the IRAK-4 peptide substrate (biotin-KKKKRFSFKKSFKC) by the enzyme in the presence of 10 μM ATP (Sigma-Aldrich, Cat. A7699) was measured by the TR-FRET method. The enzymatic reaction was performed in a reaction buffer containing 50 mM HEPES (pH 7.2), 1 mM DTT, 0.1 mM Na3VO4, 5 mM MgCl2, 1 mM MnCl2, and 0.1% bovine serum albumin. For the measurement of the IRAK-4 inhibitory activity, a test compound was added to the reaction buffer containing 1 nM IRAK-4, 0.5 μM peptide substrate, and 10 μM ATP, and the mixture was incubated at 23° C. for 30 minutes. Then, a detection solution containing an antibody labeled with europium cryptate (0.3 μg/mL, the antibody was prepared by using the IRAK-4 peptide substrate as the antigen), streptavidin-XL665 (2 μg/mL, CisBio, Cat. 610SAXLB), 50 mM HEPES (pH 7.2), 0.1% BSA, 120 mM KF, and 66.7 mM EDTA (all the concentrations of the reagents are final concentrations) was added to terminate the reaction, and then the mixture was further incubated at 23° C. for 60 minutes. Fluorescence intensity was measured at wavelengths of 665 nm and 620 nm with a microplate reader, and the enzymatic activity was calculated as the ratio of fluorescence intensities at 665 nm and 620 nm (665 nm/620 nm).

Molecules are shown by their SMILES.

Sequence of human IRAK-4 (Q9NWZ3 whole entry): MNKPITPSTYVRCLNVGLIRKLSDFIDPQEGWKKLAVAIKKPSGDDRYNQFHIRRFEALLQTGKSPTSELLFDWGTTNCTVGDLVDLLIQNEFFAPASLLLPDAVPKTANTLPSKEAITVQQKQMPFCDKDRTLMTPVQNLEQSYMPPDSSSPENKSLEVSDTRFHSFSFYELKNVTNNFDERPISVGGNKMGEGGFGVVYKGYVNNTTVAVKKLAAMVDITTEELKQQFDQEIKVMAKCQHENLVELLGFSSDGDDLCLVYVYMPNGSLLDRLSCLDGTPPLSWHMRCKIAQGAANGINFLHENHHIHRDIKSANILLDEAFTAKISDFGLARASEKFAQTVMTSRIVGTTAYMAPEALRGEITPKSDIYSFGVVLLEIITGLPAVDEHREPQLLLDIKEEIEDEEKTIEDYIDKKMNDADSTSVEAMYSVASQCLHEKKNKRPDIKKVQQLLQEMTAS

As for `CN(C1CC(C(=O)Nc2nc3ccc(-c4cnc(CO[C@H]5CCC[C@@H]5O)nc4)cc3s2)C1)C12CC(C)(C1)C2` (stereo partly drawn) [b-03-04], the values for the IC50 in assay [1] and in assay [2] were 117 nM and 1.67 nM, respectively.
For the molecule `O=C(Nc1nc2ccc(-c3cnc(CO[C@H]4CCC[C@@H]4O)nc3)cc2s1)C1CC(N2CC[C@@H](F)C2)C1` (stereo partly drawn) [b-02-01], the concentration for half-maximal inhibition (IC50) (as a rule, the concentration needed to halve the response being measured) in assay [1] was 195 nM; in assay [2], 3.16 nM.
The matching figures for `C[C@H]1CCCN1C1CC(C(=O)Nc2nc3ccc(-c4cnc(CO[C@H]5CCC[C@@H]5O)nc4)cc3s2)C1` (stereo partly drawn) [b-02-26]: 126 nM and 1.75 nM.
The matching figures for `O=C(Nc1nc2ccc(-c3cnc(CO[C@H]4CCC[C@@H]4O)nc3)cc2s1)C1CC(NC2(C(F)(F)F)CCCC2)C1` (stereo partly drawn) [b-02-80]: 176 nM and 6.86 nM.
On to `O=C(Nc1nc2ccc(-c3cnc(CO[C@H]4CCC[C@@H]4O)nc3)cc2s1)C1CC2(CCN(C(=O)C3COC3)CC2)C1` [d-03-09], for which the half-maximal inhibitory concentration (IC50) in assay [1] came out at 158 nM; in assay [2], 1.47 nM.
Consider `O=C(Nc1nc2ccc(-c3cnc(CO[C@H]4CCC[C@@H]4O)nc3)cc2s1)C1CC(NC2CCCC2)C1` (stereo partly drawn) [b-02-50], for which the IC50 in assay [1] was 144 nM; in assay [2] it was 1.93 nM.
The matching figures for `O=C(Nc1cc2cc(-c3cnc(CO[C@H]4CCC[C@@H]4O)nc3)ccn2n1)C1CC1` [e-01-01, N-(5-(2-((((1S,2S)-2-hydroxycyclopentyl)oxy)methyl)pyrimidin-5-yl)pyrazolo[1,5-a]pyridin-2-yl)cyclopropanecarboxamide]: 279 nM and 2.89 nM.
The matching figures for `CC(C)[C@H]1CN(C(=O)c2ccccn2)CCN1C1CC(C(=O)Nc2nc3ccc(-c4cnc(CO[C@H]5CCC[C@@H]5O)nc4)cc3s2)C1` (stereo partly drawn) [b-04-15]: 28 nM and 1.61 nM.
The matching figures for `O=C(Nc1nc2ccc(-c3cnc(CO[C@H]4CCC[C@@H]4O)nc3)cc2s1)C1CC(NC2(C(F)F)CC2)C1` (stereo partly drawn) [b-02-56]: 109 nM and 1.76 nM.
Consider `O=C(Nc1nc2ccc(-c3cnc(CO[C@H]4CCC[C@@H]4O)nc3)cc2s1)C1CC(N2CCOC(C(F)(F)F)C2)C1` (stereo partly drawn) [b-02-61], for which the values for the half-inhibitory concentration (IC50) in assay [1] and in assay [2] were 109 nM and 3.87 nM, respectively.
On to `CN(C1CC(C(=O)Nc2nc3ccc(-c4cnc(CO[C@H]5CCC[C@@H]5O)nc4)cc3s2)C1)C12CC(C1)C2` (stereo partly drawn) [b-03-01, 3-(Bicyclo[1,1,1]pentan-1-yl(methyl)amino)-N-(6-(2-((((1S,2S)-2-hydroxycyclopentyl)oxy)methyl)pyrimidin-5-yl)benzo[d]thiazol-2-yl)cyclobutane-1-carboxamide], for which the IC50 in assay [1] worked out at 71 nM; in assay [2] it was 1.3 nM.
The matching figures for `COc1c(-c2cnc(CO[C@H]3CCC[C@@H]3O)nc2)ccc2nc(NC(=O)C3CC(OC(C)(C)C)C3)sc12` (stereo partly drawn) [c-02-07]: 76 nM and 1.56 nM.
Take `COc1c(-c2cnc(CO[C@H]3CCC[C@@H]3O)nc2)ccc2nc(NC(=O)[C@H]3C[C@@H](N4CCN(C(=O)c5ccnc(C)c5)C[C@@H]4C)C3)sc12` [c-03-02, (1R,3s)-N-(6-(2-((((1S,2S)-2-Hydroxycyclopentyl)oxy)methyl)pyrimidin-5-yl)-7-methoxybenzo[d]thiazol-2-yl)-3-((S)-2-methyl-4-(2-methylisonicotinoyl)piperazin-1-yl)cyclobutane-1-carboxamide]: the IC50 is 13 nM in assay [1] and 2.36 nM in assay [2].
The matching figures for `C[C@H]1CN(C(=O)c2ccc(C(F)(F)F)cn2)CCN1[C@H]1C[C@@H](C(=O)Nc2nc3ccc(-c4cnc(CO[C@H]5CCC[C@@H]5O)nc4)cc3s2)C1` [b-04-14]: 25 nM and 1.5 nM.
The matching figures for `C[C@H]1CN(C2CC2)CCN1C1CC(C(=O)Nc2nc3ccc(-c4cnc(CO[C@H]5CCC[C@@H]5O)nc4)cc3s2)C1` (stereo partly drawn) [b-08-01, 3-((S)-4-Cyclopropyl-2-methylpiperazin-1-yl)-N-(6-(2-((((1S,2S)-2-hydroxycyclopentyl)oxy)methyl)pyrimidin-5-yl)benzo[d]thiazol-2-yl)cyclobutane-1-carboxamide]: 56 nM and 1.97 nM.
The matching figures for `C[C@H]1CN(C(=O)C2CCOC2)CCN1[C@H]1C[C@@H](C(=O)Nc2nc3ccc(-c4cnc(CO[C@H]5CCC[C@@H]5O)nc4)cc3s2)C1` (stereo partly drawn) [b-04-07]: 60 nM and 2.6 nM.
Take `CC(C)[C@@H]1COCCN1C1CC(C(=O)Nc2nc3ccc(-c4cnc(CO[C@H]5CCC[C@@H]5O)nc4)cc3s2)C1` (stereo partly drawn) [b-02-34]: the values for the half-inhibitory concentration (IC50) in assay [1] and in assay [2] were 116 nM and 2.52 nM, respectively.
The matching figures for `C[C@H]1CN(CC(F)(F)F)CCN1[C@H]1C[C@@H](C(=O)Nc2cc3cc(-c4cnc(CO[C@H]5CCC[C@@H]5O)nc4)ccn3n2)C1` [e-02-04]: 116 nM and 1.05 nM.
As for `C[C@H]1CN(C(=O)c2nccs2)CCN1[C@H]1C[C@@H](C(=O)Nc2nc3ccc(-c4cnc(CO[C@H]5CCC[C@@H]5O)nc4)cc3s2)C1` [b-04-31], the IC50 was found to be 55 nM in assay [1] and 1.73 nM in assay [2].
For the molecule `CN1CC(F)(COc2c(-c3cnc(CO[C@H]4CCC[C@@H]4O)nc3)ccc3nc(NC(=O)C4CC4)sc23)C1` [c-05-01, N-(7-((3-Fluoro-1-methylazetidin-3-yl)methoxy)-6-(2-((((1S,2S)-2-hydroxycyclopentyl)oxy)methyl)pyrimidin-5-yl)benzo[d]thiazol-2-yl)cyclopropanecarboxamide], the figures for the IC50 in assay [1] and in assay [2] were 233 nM and 5.48 nM, respectively.
`CCNC(=O)N1CCN([C@H]2C[C@@H](C(=O)Nc3nc4ccc(-c5cnc(CO[C@H]6CCC[C@@H]6O)nc5)cc4s3)C2)[C@@H](C)C1` [b-06-01] displayed an IC50 in assay [1] of 93 nM.
Still for that read-out and setting: next, `C[C@H]1CN(S(C)(=O)=O)CCN1[C@H]1C[C@@H](C(=O)Nc2nc3ccc(-c4cnc(CO[C@H]5CCC[C@@H]5O)nc4)cc3s2)C1` [b-05-08]: 81 nM; `COc1c(-c2cnc(CO[C@H]3CCC[C@@H]3O)nc2)ccc2nc(NC(=O)[C@H]3C[C@H]3C)sc12` [c-02-03]: 229 nM; `O=C(Nc1nc2ccc(-c3cnc(CO[C@H]4CCC[C@@H]4O)nc3)cc2s1)C1CC2(CCN(C(=O)c3ccccc3)CC2)C1` [d-03-04]: 194 nM.
Still for that read-out and setting: next, `CC(C)(C)OC1CC(C(=O)Nc2cc3cc(-c4cnc(CO[C@H]5CCC[C@@H]5O)nc4)ccn3n2)C1` (stereo partly drawn) [e-03-01, 3-(tert-Butoxy)-N-(5-(2-((((1S,2S)-2-hydroxycyclopentyl)oxy)methyl)pyrimidin-5-yl)pyrazolo[1,5-a]pyridin-2-yl)cyclobutane-1-carboxamide]: 168 nM.
Consider `O=C(Nc1nc2ccc(-c3cnc(CO[C@H]4CCC[C@@H]4O)nc3)cc2s1)[C@H]1C[C@@H](OCC2CC2)C1` [d-04-04], for which half-maximal inhibition in assay [1] (IC50) was put at 169 nM. The IC50 values of the last two molecules are within 1.5-fold of each other.
For `COc1c(-c2cnc(CO[C@H]3CCC[C@@H]3O)nc2)ccc2nc(NC(=O)[C@H]3C[C@@H]3C)sc12` [c-02-02], in assay [1], the IC50 came out at 186 nM.
Still for that read-out and setting: the value for `O=C(Nc1nc2ccc(-c3cnc(CO[C@H]4CCC[C@@H]4O)nc3)cc2s1)C1CC(NC2CC(F)(F)C2)C1` (stereo partly drawn) [b-02-64] was 164 nM.
Still for that read-out and setting: the value for `O=C(Nc1nc2ccc(-c3cnc(CO[C@H]4CCC[C@@H]4O)nc3)cc2s1)C1CC(N2CCCC3(COC3)C2)C1` (stereo partly drawn) [b-02-75] was 186 nM.
Turning to `CC1(F)CN(C2CC(C(=O)Nc3nc4ccc(-c5cnc(CO[C@H]6CCC[C@@H]6O)nc5)cc4s3)C2)C1` (stereo partly drawn) [b-02-45], in assay [1], the midpoint of inhibition, the IC50, lay at 200 nM. The IC50 values of the last two molecules are within 1.5-fold of each other.
On the same count and under the same terms, the value for `O=C(Nc1nc2ccc(-c3cnc(CO[C@H]4CCC[C@@H]4O)nc3)cc2s1)C1CC2(CCN(C(=O)C3CC3)CC2)C1` [d-03-03] was 87 nM.
On the same count and under the same terms, next, `COCC(=O)N1CCC2(CC1)CC(C(=O)Nc1nc3ccc(-c4cnc(CO[C@H]5CCC[C@@H]5O)nc4)cc3s1)C2` [d-03-02]: 111 nM; `CN(C1CC(C(=O)Nc2nc3ccc(-c4cnc(CO[C@H]5CCC[C@@H]5O)nc4)cc3s2)C1)C1(C#N)CC1` (stereo partly drawn) [b-02-73]: 113 nM; `CO[C@H]1C[C@@H](C(=O)Nc2nc3ccc(-c4cnc(CO[C@H]5CCC[C@@H]5O)nc4)cc3s2)C1` [a-01-06]: 170 nM.

The record behind these values is patent publication US20240025893A1, “PYRIMIDINE-AND NITROGEN-CONTAINING BICYCLIC COMPOUND” (Asahi Kasei Pharma Corporation, priority 2020, published 2024).
